This is an account of results in patent US10941143B2, “Imidazo [1,5-a]pyridine compounds and their use” (Alterity Therapeutics Limited, priority 2019, dated 2021).

In the experiment the test system is human neuroblastoma line BE(2)-M17 (M17) cells. Nature of the experiment: Measurement of Fe efflux from cells. To be noted: M17 cells pre-loaded with 57Fe, compound 20 μM for 2 h, percentage increase of Fe in media relative to media without compound, read-out: % Fe Efflux Range. In kind it is cell-based. Here is the method: Method I: Measurement of Fe Efflux from Cells
Compounds of the current invention were assessed for their ability to efflux iron (Fe) from a cell using the following protocol.
The human neuroblastoma line BE(2)-M17 (M17) cell cultures were acquired from Sigma Aldrich (Catalogue #: 95011816). M17 Cells were maintained in Opti-MEM reduced serum media supplemented with 10% fetal bovine serum (Bovogen, SFBSF) and passaged twice weekly. Cells were cultured at 37° C. in the presence of 5% CO2. Culture supplies were sourced from Thermo Fisher unless otherwise stated.
A solution of ^57Fe cold isotope was prepared by dissolving ^57Fe metal (>95% enrichment, Trace Sciences International) in concentrated HCl to give a final concentration of 573 mM. From this master solution, a 10 mM working solution was prepared in sterile water. The working solution was used within two months of preparation.
M17 cells were loaded with iron initially by seeding into 48-well plates at a density of 0.15×10^6 cells per well in 0.5 mL media. After 48 h, old media was discarded. Fresh media was supplemented with 20 μM ^57Fe isotope, from the 10 mM ^57Fe working solution. Cells received 0.2 mL of this ^57Fe enriched media and were returned to the incubator for 20 h. The ability of experimental compounds to efflux iron was determined by the dissolution of compounds in DMSO and diluted in Hanks' Balanced Salt Solution (HBSS) for treatment of M17 cells. After ^57Fe incubation, cells were rinsed twice with HBSS and treated with 0.15 mL trial compound for 2 h at a concentration of 20 μM. All assays included a relevant vehicle (0.4%-0.8% DMSO) as well as a positive control (20 μM). Following the treatment period, 0.1 mL of media was collected from cells and the extracellular ^57Fe content was analysed via inductively coupled mass spectrometry (ICP-MS, Agilent 7700x series instrument).
To perform this protocol the following supplies were purchased from Sigma Aldrich: anhydrous dimethyl sulfoxide (DMSO, Catalogue #: 276855), Hanks' Balanced Salt Solution supplemented with 20 mM HEPES and 4.2 mM Sodium Bicarbonate (HBSS, pH: 7.4, Catalogue #: H1387).
After 2 h the Fe levels in the media were measured and the increase determined as a percentage increase relative to the cell media in the absence of the compound.
As to `Oc1cc(F)ccc1-c1nc(-c2cccc(F)c2O)n2ccccc12` [Compound 50], the activation at 20 µM fell in the range of 30 to 100%.

Regarding `Oc1cccnc1-c1nc(-c2cccc(Cl)c2O)n2ccccc12` [Compound 82], the activation at 20 µM fell in the range of 30 to 100%.

`Oc1ccccc1-c1nc(-c2c(Cl)cccc2Cl)n2ccccc12` [Compound 24]: the activation at 20 µM was < 30%.

Regarding `Oc1ccncc1-c1nc(-c2c(O)cccc2Cl)n2ccccc12` [Compound 172], the activation at 20 µM is 30 to 100%.

Take `Oc1ccncc1-c1nc(-c2cc(F)ccc2O)n2ccccc12` [Compound 159]: the activation at 20 µM fell in the range of 30 to 100%.

For `Oc1cccnc1-c1nc(-c2cccc(F)c2O)n2ccccc12` [Compound 81, 2-(3-(3-Fluoro-2-hydroxyphenyl)imidazo[1,5-a]pyridin-1-yl)pyridin-3-ol], the activation at 20 µM was > 150%.

As to `Oc1cccnc1-c1nc(-c2cccc(F)c2O)n2ncccc12` [Compound 121], the activation at 20 µM was > 150%.

With `Oc1ncccc1-c1nc(-c2cc(F)cc(F)c2O)n2ccccc12` [Compound 145], the activation at 20 µM was in the range of 100 to 150%.

As to `Oc1cccc(F)c1-c1nc(-c2cccnc2O)c2ccccn12` [Compound 152], the activation at 20 µM was in the range of 30 to 100%.

As to `Oc1cc(F)ccc1-c1nc(-c2c(O)cccc2F)n2ccccc12` [Compound 49], the activation at 20 µM was < 30%.

Regarding `COc1ccncc1-c1nc(-c2cc(F)cc(F)c2O)n2ccccc12` [Compound 155], the activation at 20 µM was < 30%.

`Oc1ncccc1-c1nc(-c2cccc(F)c2O)n2ccccc12` [Compound 148]: the activation at 20 µM fell in the range of 30 to 100%.

Consider `Oc1c(Cl)cccc1-c1nc(-c2cccc(Br)c2O)c2ccccn12` [Compound 32], for which the activation at 20 µM is 30 to 100%.

In the case of `Oc1ncccc1-c1nc(-c2cccc(Cl)c2O)n2ccccc12` [Compound 150], the activation at 20 µM lay in the range of 30 to 100%.

In the case of `Oc1cnccc1-c1nc(-c2cccc(F)c2O)n2ccncc12` [Compound 175], the activation at 20 µM was > 150%.

For `Oc1ccccc1-c1nc(-c2cccc(F)c2O)n2ncccc12` [Compound 103], the activation at 20 µM lay in the range of 30 to 100%.

As for `COc1ccncc1-c1nc(-c2cc(F)ccc2O)n2ccccc12` [Compound 154], the activation at 20 µM is < 30%.

For `Oc1ccccc1-c1nc(-c2cccc(Cl)c2)n2ccccc12` [Compound 27], the activation at 20 µM was < 30%.

With `Oc1cccnc1-c1nc(-c2cc(Cl)cc(Cl)c2O)n2ccccc12` [Compound 85], the activation at 20 µM was in the range of 30 to 100%.

Take `O=[N+]([O-])c1ccccc1-c1nc(-c2ccccc2O)c2ccccn12` [Compound 77]: the activation at 20 µM is < 30%.

On to `Oc1cnccc1-c1nc(-c2ccccc2O)n2cccnc12` [Compound 185], for which the activation at 20 µM was in the range of 100 to 150%.

As for `COC(=O)c1ccc(-c2nc(-c3ccccc3O)c3ccccn23)cc1` [Compound 25], the activation at 20 µM was < 30%.

For the compound `Cc1ccc(O)c(-c2nc(-c3c(O)cccc3F)n3ccccc23)c1` [Compound 87], the activation at 20 µM is < 30%.

As for `Oc1ccc(Cl)cc1-c1nc(-c2ncccc2O)c2ccccn12` [Compound 92], the activation at 20 µM lay in the range of 100 to 150%.

For the compound `N#Cc1ccccc1-c1nc(-c2ccccc2O)c2ccccn12` [Compound 16, 2-(1-(2-Hydroxyphenyl)imidazo[1,5-a]pyridin-3-yl)benzonitrile], the activation at 20 µM was < 30%.

`COc1cccnc1-c1nc(-c2cc(F)ccc2O)n2ccccc12` [Compound 56, 4-Fluoro-2-(1-(3-methoxypyridin-2-yl)imidazo[1,5-a]pyridin-3-yl)phenol]: the activation at 20 µM lay within 30 to 100%.

Regarding `Oc1ccccc1-c1nc(-c2ccc(Cl)cc2)n2ccccc12` [Compound 29], the activation at 20 µM is < 30%.

Regarding `Oc1ccncc1-c1nc(-c2ccccc2O)n2ccccc12` [Compound 158], the activation at 20 µM lay within 30 to 100%.

`Cc1ccc(O)c(-c2nc(-c3ccncc3O)c3cccnn23)c1` [Compound 182]: the activation at 20 µM was in the range of 30 to 100%.

For the compound `Oc1cnccc1-c1nc(-c2cccc(F)c2O)n2ccccc12` [Compound 111], the activation at 20 µM was in the range of 100 to 150%.

As to `Cc1cccc(-c2nc(-c3cccnc3O)c3ccccn23)c1O` [Compound 142], the activation at 20 µM lay within 30 to 100%.

Regarding `Oc1ccc(Br)cc1-c1nc(-c2ccccc2)n2ccccc12` [Compound 6], the activation at 20 µM was < 30%.

On to `Oc1cc(F)ccc1-c1nc(-c2cc(F)ccc2O)n2ccccc12` [Compound 51], for which the activation at 20 µM is < 30%.

As to `Oc1ccccc1-c1nc(-c2ncccc2O)c2ccccn12` [Compound 4, 2-(3-(2-Hydroxyphenyl)imidazo[1,5-a]pyridin-1-yl)pyridin-3-ol], the activation at 20 µM is > 150%.

Consider `Cc1ccc(O)c(-c2nc(-c3cccnc3O)c3ccccn23)c1` [Compound 147, 3-(3-(2-Hydroxy-5-methylphenyl)imidazo[1,5-a]pyridin-1-yl)pyridin-2-ol], for which the activation at 20 µM was in the range of 100 to 150%.

On to `CN(C)Cc1cccc(-c2nc(-c3ccccc3O)c3ccccn23)c1O` [Compound 124, 2-((Dimethylamino)methyl)-6-(1-(2-hydroxyphenyl)imidazo[1,5-a]pyridin-3-yl)phenol], for which the activation at 20 µM is > 150%.

For the compound `Oc1cccc(Cl)c1-c1nc(-c2cccc(F)c2O)c2ccccn12` [Compound 39], the activation at 20 µM was 30 to 100%.

For the compound `Oc1cnccc1-c1nc(-c2cc(F)ccc2O)n2ccncc12` [Compound 178], the activation at 20 µM was > 150%.

Take `Oc1ccccc1-c1nc(-c2cccc(F)c2O)c2ccccn12` [Compound 37]: the activation at 20 µM was < 30%.

Take `Oc1cnccc1-c1nc(-c2ccccc2O)n2ccccc12` [Compound 110]: the activation at 20 µM is > 150%.

For `Oc1ccc(Cl)cc1-c1nc(-c2cccc(F)c2O)c2ccccn12` [Compound 42], the activation at 20 µM was in the range of 30 to 100%.

Turning to `Oc1cnccc1-c1nc(-c2cc(Cl)ccc2O)n2ccncc12` [Compound 179], the activation at 20 µM was > 150%.

Consider `Oc1cccnc1-c1nc(-c2ccccc2F)n2ccccc12` [Compound 130, 2-(3-(2-Fluorophenyl)imidazo[1,5-a]pyridin-1-yl)pyridin-3-ol], for which the activation at 20 µM was < 30%.

As for `Cc1ccc(O)c(-c2nc(-c3ncccc3O)c3cccnn23)c1` [Compound 123], the activation at 20 µM is > 150%.

`COc1cccnc1-c1nc(-c2cc(C)ccc2O)n2ccccc12` [Compound 61]: the activation at 20 µM lay in the range of 30 to 100%.

As to `Oc1ccccc1-c1nc(-c2cccc(F)c2O)n2ccccc12` [Compound 10, 2-Fluoro-6-(1-(2-hydroxyphenyl)imidazo[1,5-a]pyridin-3-yl)phenol], the activation at 20 µM was in the range of 30 to 100%.

Take `COc1ccncc1-c1nc(-c2ccccc2O)n2ccccc12` [Compound 153]: the activation at 20 µM is < 30%.

As for `Oc1ccccc1-c1nc(-c2cccnc2O)c2ccccn12` [Compound 141, 3-(3-(2-Hydroxyphenyl)imidazo[1,5-a]pyridin-1-yl)pyridin-2-ol], the activation at 20 µM lay in the range of 100 to 150%.

As for `COC(=O)c1ccccc1-c1nc(-c2ncccc2O)c2ccccn12` [Compound 126], the activation at 20 µM is < 30%.

In the case of `Oc1ccccc1-c1nc(-c2ncccc2O)n2ccccc12` [Compound 95, 2-(1-(2-Hydroxyphenyl)imidazo[1,5-a]pyridin-3-yl)pyridin-3-ol], the activation at 20 µM lay within 30 to 100%.

Turning to `Oc1ccccc1-c1nc(-c2cc(Cl)cc(Cl)c2)n2ccccc12` [Compound 21], the activation at 20 µM is < 30%.

With `Cc1ccc(O)c(-c2nc(-c3ccncc3O)c3ncccn23)c1` [Compound 186], the activation at 20 µM was 30 to 100%.

For the compound `Oc1cnccc1-c1nc(-c2cccc(Cl)c2O)n2ccccc12` [Compound 112], the activation at 20 µM was in the range of 100 to 150%.

For the compound `Oc1cc(Cl)ccc1-c1nc(-c2ncccc2O)c2ccccn12` [Compound 93], the activation at 20 µM is 30 to 100%.

Consider `COc1ccncc1-c1nc(-c2c(O)cccc2F)n2ccccc12` [Compound 156], for which the activation at 20 µM was < 30%.

Regarding `Oc1ccccc1-c1nc(-c2ncccc2O)c2cccnn12` [Compound 120, 2-(7-(2-Hydroxyphenyl)imidazo[1,5-b]pyridazin-5-yl)pyridin-3-ol], the activation at 20 µM fell in the range of 100 to 150%.

Consider `CCN(CC)c1ccc(-c2nc(-c3cccnc3O)c3ccccn23)c(O)c1` [Compound 146], for which the activation at 20 µM was 30 to 100%.

Turning to `COC(=O)c1ccc(O)c(-c2nc(-c3ccccc3O)c3ccccn23)c1` [Compound 22, Methyl 4-hydroxy-3-(1-(2-hydroxyphenyl)imidazo[1,5-a]pyridin-3-yl)benzoate], the activation at 20 µM lay in the range of 30 to 100%.

For the compound `Oc1ccccc1-c1nc(-c2c(O)cccc2F)n2ccccc12` [Compound 18, 3-Fluoro-2-(1-(2-hydroxyphenyl)imidazo[1,5-a]pyridin-3-yl)phenol], the activation at 20 µM lay in the range of 30 to 100%.
